Source: US12653860B2, “Compositions and methods for editing beta-globin for treatment of hemaglobinopathies” (Vertex Pharmaceuticals Incorporated, priority 2019, dated 2026)
Strand notation (5' to 3'): a small letter for the sugar, then the base; units joined by * are phosphorothioate-linked, units joined directly phosphodiester-linked; [ ] holds rarer units or linkages, { } end groups; capitals alone tell only the bases. m = 2'-O-methyl; r = 2'-OH (RNA)

How the values were obtained:
[1] = tested on: BFP gene encoded in the AAVS1 locus of HEK293 T cells; experiment: BFP to GFP reporter assay of HDR repair (flow cytometry); format: cell-based; conditions: different concentrations or doses; FIG. 1B, 1C
Protocol: An in vitro assay was conducted to determine the ability of various inhibitors and enhancers to improve the efficiency of HDR repair in HEK293 T cells. Specifically, a fluorescent reporter-based screening approach was developed to identify molecules that enhance gene-editing by HDR. A reporter system was generated in HEK293 T cells comprising a genomic AAVS1 locus that encoded either a blue fluorescent protein (BFP) or a green fluorescent protein (GFP) within the AAVS1 locus. A gene encoding BFP can be converted to a gene encoding GFP by substitution of cytosine at position 199 to uridine (e.g., a C to U transition at position 199). By introducing a DSB within the BFP gene using a CRISPR/Cas9 gene-editing system, a homology donor DNA encoding the nucleotide substitution can be used to edit the BFP gene to a GFP gene by HDR repair. Thus, a gene edit that induces a C to U transition at position 199 results in a change in cellular fluorescence. A change in the fluorescence of the cell measured by flow cytometry can be used to quantify efficiency of HDR repair. Additionally, the reverse gene edit can be performed for an AAVS1 locus encoding a GFP gene, wherein a GFP can be converted to BFP by substitution of uridine at position 199 to cytosine.
To create the reporter system, an AAV-based homology donor DNA encoding either BFP or GFP was created. The AAV-BFP or AAV-GFP donor was flanked by homology arms that were 1000 base pairs in length and expression of BFP or GFP was driven by the MND promoter (e.g., a synthetic promoter that contains the U3 region of a modified Moloney murine leukemia virus long term terminal repeat with myeloproliferative sarcoma virus enhancer and deleted negative control region, SEQ ID NO: 58). The viral DNA was packaged into capsids of adeno-associated virus serotype 6 (AAV6) vector. Either the BFP or GFP donor was introduced using the AAV6 vector into the AAVS1 locus in HEK293 T cells by homologous recombination using CRISPR-Cas9 as follows: purified Cas9 protein was complexed with two different single gRNAs (sgRNAs) targeting the AAVS1 locus at SEQ ID NO: 3 (spacer sequence identified by SEQ ID NO: 4; gRNA obtained from Maxcyte) or SEQ ID NO: 5 (spacer sequence identified by SEQ ID NO: 6; gRNA obtained from Thermo Fisher). Cas9 protein used in the Exemplary section provided herein refers to Cas9 polypeptide derived from S pyogenes (SpCas9), unless indicated otherwise.
The Cas9-sgRNA complex was electroporated into the HEK293 T cells using the Lonza Nucleofector program CM-130. Approximately, 2 hours after electroporation, the cells were infected with various viral doses of AAV6 encoding a BFP (SEQ ID NO: 44) or GFP homology donor (SEQ ID NO: 47). One week later, cells were analyzed by flow cytometry to verify integration and expression of BFP or GFP in the AAVS1 locus. HEK293 T cells expressing BFP or GFP were sorted into single cells in 96-well plates. After −2 weeks of growth, DNA extracted from individual cells was analyzed for precise integration of the respective BFP or GFP gene into the AAVS1 locus by long-range PCR. This PCR analysis allowed for determination of whether the BFP/GFP gene was integrated in one or both alleles of the AAVS1 locus.
To introduce a gene edit that converts BFP to GFP, cells were electroporated with ribonucleoprotein (RNP) comprised of Cas9 and sgRNA that targets the BFP gene encoded in the AAVS1 locus. The sgRNA targeted a sequence in the BFP gene identified by SEQ ID NO: 7 (sgRNA spacer sequence identified by SEQ ID NO: 8). The sgRNA were prepared using a standard sgRNA cassette specific to SpCas9, as indicated by SEQ ID NO: 2 (wherein a, c, g, u represent 2′ O-methyl phosphorothioate nucleotides; s represents phosphorothioate nucleotides; and A, C, G, U, N represent canonical RNA nucleotides). The gRNAs used in the Exemplary section provided herein were sgRNAs prepared with the SpCas9 sgRNA cassette unless indicated otherwise. […]

[2] = tested on: HBB locus in CD34-expressing LT-HSPCs; experiment: HDR insertion of AAV GFP donor at HBB locus (GFP fluorescence); format: cell-based, human; conditions: i53 mRNA 0.5, 1, 2 g (FIG. 6A) or 0.3 g, 1 g (FIG. 6B); CYREN1 or CYREN2 mRNA; any dose of XL413 (data not shown)
Protocol: Frozen CD34-expressing LT-HSPCs derived from plerixafor (i.e., Mozibil®)+GCSF-dual mobilized peripheral blood obtained from healthy human donors were purchased from a commercial vendor. LT-HSPCs were maintained in culture media comprised of the reagents shown in Table 4 and were incubated at 37° C., 5% carbon dioxide, 4% oxygen. […] 2×10^5 cells were edited with 3 g Cas9 and 3 g gRNA. The target gene sequence (including target sequence with PAM), R02 spacer sequence, and R02 sgRNA sequence are identified in Table 3.
The cells were transfected with a dsDNA homology donor encoding GFP under a SFFV promoter (SEQ ID NO: 60) that was delivered by AAV (SEQ ID NO: 56). […] The HDR efficiency was determined by measuring the level of GFP fluorescence in the cells following electroporation. To determine the effect of 53BP1 inhibition on HDR efficiency, the 53BP1 inhibitor i53 was introduced as an mRNA-encoded protein to the cells during electroporation with Cas9/gRNA RNP and AAV DNA that serves as a donor for homology directed repair.
The effect of 53BP1 inhibition on HDR efficiency was compared to other mRNA-encoded proteins that inhibit the NHEJ pathway. These included the proteins CYREN1 and CYREN2 that inhibit Ku70/80, a heterodimer that binds DNA blunt ends to prevent processing of 3′ single-stranded DNA tails necessary for HDR repair. Cells were electroporated with RNP, an AAV-GFP homology donor and mRNA encoding either i53 (mRNA ORF shown in SEQ ID NO: 69), CYREN1, or CYREN2.
The effect of treatment with i53 and Nu7441 was compared for improving efficiency of HDR repair of the HBB locus. Cells were treated with different doses of Nu7441 or with mRNA encoding i53 (ORF shown by SEQ ID NO: 69).

[3] = tested on: HBB gene locus in CD34-expressing LT-HSPCs; experiment: HDR insertion of GFP donor at HBB gene locus with DNA-PK inhibitor (percentage of cells expressing GFP); format: cell-based, human; conditions: for level of HDR repair (cells expressing GFP): day 2 post-editing, FIG. 37A
Protocol: The effect of DNA-PK inhibition using Compound 296 was compared to the effect of 53BP1 inhibition using i53 for increased HDR repair of the HBB gene locus with donor DNA encoding GFP.
The efficiency of HDR for repair of the HBB gene with donor encoding GFP was determined by measuring the percentage of cells expressing GFP following electroporation.
(§1) Edited cells were evaluated for GFP fluorescence on day 2 post-editing using flow cytometry, and viability was determined via staining with Tryphan Blue.

[4] = tested on: HBB gene locus in CD34-expressing LT-HSPCs; experiment: HDR efficiency at HBB gene with R02 RNP+AAV.307 and DNA-PK inhibitors, NGS; format: cell-based, human
Protocol: (§2) Editing was performed as described above. However, the cells were electroporated with AAV.307 administered 1 hour prior to electroporation at a dose of 10,000 MOI. The cells were electroporated with compound 296 at a concentration ranging from 0.005 μM to 10 μM, with compound 984 at a concentration ranging from 0.005 μM to […], or with 1 μg i53 mRNA. Negative control cells were electroporated with RNP+AAV only or RNP only.
(§3) Edited cells were evaluated for viability as described above, and for incorporation of gene-edits at 2 days post-electroporation. […] The frequency of INDELs induced at the R02 cut site was also evaluated by NGS analysis.

CD34-expressing LT-HSPCs = experiment: Viability of edited LT-HSPCs by Tryphan Blue staining; format: cell-based, human
Protocol: as §1, §3

[5] = molecular target: DNA-PK catalytic subunit (DNA-PKcs) (Homo sapiens, UniProt P78527); conditions: reported, U.S. Pat. No. 9,592,232; cited from earlier work
[6] = tested on: HBB gene locus in CD34-expressing LT-HSPCs; experiment: INDEL frequency and species at R02 cut site with DNA-PK inhibitors, NGS; format: cell-based, human
Protocol: as §2, §3
The INDELs species identified for cells edited in Experiment 2 were further evaluated to determine frequency of repair by NHEJ or MMEJ repair pathways. An INDEL of 1 nt was considered due to NHEJ repair; a deletion of −9 nt was considered due to MMEJ repair based on the microhomology present on either side of the R02 cut site. Based on percentage of total reads corresponding to these INDEL species, the ratio of gene edits due to NHEJ and MMEJ repair was evaluated.

genomic DNA = experiment: GUIDE-Seq screen of candidate off-target sites; format: cell-based
Source text: The second approach was to screen candidate off-target sites using GUIDE-Seq (see, e.g., Tsai et al (2015) NAT BIOTECHNOL. 33:187). Based on this approach, 36 sites in the genomic DNA were identified as undergoing off-target CRISPR/Cas9 cleavage using the R02 gRNA.

For `CCCCCCNC(=O)Nc1ccc(S(=O)(=O)Nc2ccc(CCNC[C@H](O)COc3ccc(O)cc3)cc2)cc1` [L755,507], the “HDR efficiency (improvement)” value [1] was “no improvement in HDR efficiency”.

With `C[C@]1(c2nc3c(C(N)=O)cccc3[nH]2)CCCN1` [Veliparib] the “HDR efficiency (improvement)” value [1] was “no improvement in HDR efficiency”.

In the case of `Cl.O=c1[nH]c([C@@H]2CCCN2)nc2c1oc1ccc(Cl)cc12` [XL413], the “HDR efficiency vs RNP+AAV-only” value [2] is reported as “no improvement in HDR efficiency”.

In the case of `CNC(=O)c1ccnc2c([C@H](C)CNc3cc(-c4cnc(C)nc4)ncn3)cccc12` [Compound 296], the “level of HDR repair vs i53 mRNA” value ([3]; 1.1 μM, 3.3 μM, or 10 μM, FIG. 37B) is reported as “comparable to cells edited with i53 mRNA”, the “level of HDR repair (cells expressing GFP)” value ([3]; 1.1 μM) is reported as 53.5% and the “level of HDR repair (cells expressing GFP)” value ([3]; 3.3 μM) is reported as 56.5%. The “level of HDR repair (cells expressing GFP)” value ([3]; 10 μM) was 55.9%, the HDR efficiency ([4]; 3.3 μM, R02 RNP+AAV.307) was 80% and the “HDR efficiency, fold higher than R02 RNP+AAV only” value ([4]; 0.37-10 μM) was “at least 1.6 fold”. The “level of HDR repair” value ([4]; 0.37-10 M, R02 RNP+AAV.307, FIGS. 38A-38B) was at least 70%, the “viability of edited cells” value (CD34-expressing LT-HSPCs; AAV.307, each concentration used, Experiment 2, FIG. 38C) was over 80% and the “viability of edited cells” value (CD34-expressing LT-HSPCs; GFP donor, each concentration evaluated (0.014 μM to 10 μM), FIG. 37A) was over 80%. For the same molecule, the “affinity and selectivity for DNA-PK” value [5] was “high affinity and selectivity”, the “frequency of INDELs, fold reduced compared to R02 RNP only” value ([6]; 0.37-10 μM) was “at least 4.6 fold” and the “INDEL species due to MMEJ repair (−9 nt deletion)” value ([6]; Experiment 2, FIG. 38D) was “only a modest reduction”. For the same molecule, the “fold decrease in INDELs due to NHEJ repair (INDEL of 1 nt)” value ([6]; Experiment 2, FIG. 38D) was at most 30 fold.

With `[2H]c1nc(C)nc([2H])c1-c1cc(NC[C@@H](C)c2cccc3c(C(=O)NC)ccnc23)ncn1` [Compound 984] the HDR efficiency ([4]; 3.3 μM or 10 μM, R02 RNP+AAV.307, FIGS. 39A-39B) was over 80%, the “level of HDR repair” value ([4]; 0.37-10 μM, FIGS. 39A-39B) was “high” and the viability following editing (CD34-expressing LT-HSPCs; particularly at minimal effective concentrations) was “good viability”. For the same molecule, the “affinity and selectivity for DNA-PK” value [5] was “high affinity and selectivity” and the “frequency of INDELs, fold reduced compared to R02 RNP only” value ([6]; 3.3 μM or 10 μM, FIGS. 39A-39B) was “approximately 8 fold”.

B1: R02 gRNA: sgRNA targeting the HBB locus, SEQ ID NO: 17 (spacer SEQ ID NO: 16) (nucleic acid)
guide: mC*mU*mU*rGrCrCrCrCrArCrArGrGrGrCrArGrUrArArGrUrUrUrUrArGrArGrCrUrArGrArArArUrArGrCrArArGrUrUrArArArArUrArArGrGrCrUrArGrUrCrCrGrUrUrArUrCrArArCrUrUrGrArArArArArGrUrGrGrCrArCrCrGrArGrUrCrGrGrUrGrCmU*mU*mU*rU
With B1 the “number of genomic sites identified as undergoing off-target CRISPR/Cas9 cleavage” value (genomic DNA) was 36.
